Key:
[1] = molecular target: T1, E. coli SC (^EcSC, beta ring, DnaN) (Escherichia coli, UniProt P0A988); experiment: ITC, peptide interaction with E. coli sliding clamp; assay type: binding; details: for ΔH (kcal/mole): ITC 30° C. (303.15 K); for ΔH (kcal/mole) / Kd (nM) / ΔG (kcal/mole) / −TΔS (kcal/mole): Table 2A, ^EcSC, Ni = no specific interaction
T1 construct: inferred from the pET15b vector and the Ni-NTA/imidazole purification; made in house; host or cells: E. coli BL21 (DE3) pLys
Procedure: The DnaN protein was expressed from plasmids pET15b, containing the dnaN gene from E. coli, transfected in BL21 (DE3) pLys E. coli strain. Cells were grown in LB at 37° C. to OD 0.5, then induced by IPTG (0.1 mM) at 28° C. overnight. DnaN protein was first enriched on a Ni-NTA column, eluted with an imidazole step (300 mM) and further purified on a Source Q column in buffer containing 20 mM Tris HCl pH 7.5, 0.5 mM EDTA and 10% glycerol, using a gradient from 0 to 0.5 M NaCl. After a final ultracentrifugation (45K, 1 h, 20° C.), soluble proteins were concentrated on a Centricon 30K (Millipore) in the same buffer and stored at 4° C. in 2 M ammonium sulfate.
ITC experiments were performed on a iTC200 (Microcal Malvern Panalytical) or PEAQ-ITC instrument (Microcal Malvern Panalytical). The E. coli SC were washed extensively with ITC buffer (R1 buffer: 10 mM Hepes pH 7.4, 0.15 M NaCl, 3 mM EDTA) on Centrikon 10K at 4° C. before ITC experiments. […] Similarly, E. coli 70S ribosome particles were also washed extensively with ITC 70S buffer (50 mM Tris HCl pH7.5, 30 mM KCl, 70 mM NH4Cl, 7 mM MgCl2, 1 mM DTT, 5% glycerol) on Centrikon 100K at 4° C. before ITC experiments. […] […] Data were corrected from control experiments in which peptides were injected in ITC buffer solution. Each titration was performed at least twice. Analyses of experimental data were performed with AFFINImeter software (https://www.affinimeter.com; S4S, Santiago de Compostela, Spain).

[2] = tested on: E. coli 70S ribosome (^Ec70S); experiment: ITC, peptide interaction with E. coli 70S ribosome; assay type: binding; details: ITC 30° C., Table 2B, ^Ec70S; for Kd: FITC peptides (*), values not well defined, weak interaction; for ΔG / ΔH / −TΔS: Ni = no specific interaction, FITC peptides (*) values not well defined
Procedure: E. coli MRE600 cells were grown at 37° C. in LB medium until OD^600=1. Cells were centrifuged at 4° C., and pellets were resuspended in buffer A (20 mM Tris HCl pH 7.5; 200 mM NH4Cl; 20 mM MgCl2; 0.1 mM EDTA; 6 mM β-mercaptoethanol) and lysed using a French press at 1.6 kbar. The crude lysate was centrifuged (18 200 rpm) for 30 mn at 4° C. The supernatant was further centrifuged (47000 rpm) at 4° C. for 4 hours and the pellet resuspended in 12.5 ml of buffer A. This solution was laid on a 30% sucrose cushion and centrifuged (34 000 rpm) for 19 hours at 4° C. The ribosome pellet was resuspended in 12.5 ml buffer B (20 mM Tris HCl pH 7.5; 50 mM NH4Cl; 10 mM MgCl2; 0.1 mM EDTA; 6 mM β-mercaptoethanol) and centrifuged again (18 200 rpm) for 1 hour at 4° C. The supernatant was concentrated on Centrikon 100K (Millipore) and washed extensively with ITC 70S buffer. Ribosome concentration was determined by UV absorption at 260 nm. Samples were snap frozen in liquid nitrogen and kept at −80° C.
ITC experiments were performed on a iTC200 (Microcal Malvern Panalytical) or PEAQ-ITC instrument (Microcal Malvern Panalytical). The E. coli SC were washed extensively with ITC buffer (R1 buffer: 10 mM Hepes pH 7.4, 0.15 M NaCl, 3 mM EDTA) on Centrikon 10K at 4° C. before ITC experiments. […] Similarly, E. coli 70S ribosome particles were also washed extensively with ITC 70S buffer (50 mM Tris HCl pH7.5, 30 mM KCl, 70 mM NH4Cl, 7 mM MgCl2, 1 mM DTT, 5% glycerol) on Centrikon 100K at 4° C. before ITC experiments. Peptides (100 to 400 μM) were titrated at 30° C. (303.15 K) in sequential injections (usually 2 μl each) into a SC (20 or 30 μM) or 70S (10 to 15 μM) solution. Data were corrected from control experiments in which peptides were injected in ITC buffer solution. Each titration was performed at least twice. Analyses of experimental data were performed with AFFINImeter software (https://www.affinimeter.com; S4S, Santiago de Compostela, Spain).
The lack of interaction with the ribosome of E. coli has been measured by ITC at 30° C.:
The interactions of these peptides with the E. coli SC (beta ring) and the ribosome were measured by ITC at […]: […]

E. coli D22 strain = experiment: microbe, parasite or virus in culture; assay type: cell-based
Description: E. coli strain D22 (F-, IpxC101, proA23, lac-28, tsx-81, trp-30, his-51, tufA1, rpsL173(strR), ampCp-1 was purchased at E. coli Genetic Stock Center (Yale University) and used in the determination of MIC and in the peptide penetration assays. E. coli ATCC23724 cells were used to infect D. melanogaster flies. 70S ribosomes were purified from the E. coli MRE600 strain (Accession AY140951) and BL21 (DE3) pLys strain was used for production of the DnaN protein.
E. coli strains were cultivated on either agar or liquid 1× Mueller Hinton broth unless specified. MIC assays were performed in duplicate in 96-well microtiter plates on the basis of the protocol recommended by the Clinical and Laboratory Standards Institute. Briefly, a mix of 5-6 fresh (less than 36 hours) colonies grown on MH agar plates were inoculated in 3 ml of MH broth and incubated for about 16 h at 37° C. under agitation. 30 μl of this saturated culture were inoculated in 3 ml of fresh medium and allowed to grow until OD600 nm of about 0.6-0.8. Dilution to an OD600 nm of 0.002 was made in MH broth. Within a time laps not exceeding 30 min, 50 μl of this cell suspension was added to 50 μl of MH broth (containing or not the peptide/antibiotic diluted in MH broth) in wells of a 96-well round bottom microwell plate (Greiner; final cell density about 2 to 5×10^5 cfu/ml). Plates were incubated at 37° C. for 18-24 h and final turbidity of each well was measured at 620 nm using a Multiskan FC microplate reader (Thermo Scientific). MIC was defined as the minimal antibiotic concentration that result in no increase of turbidity at that time. Each MIC determination was performed in duplicate and at least in two independent experiments. Plating of 75 μl of the content of the wells of interest on LB Agar plates was used to determine the MBC that is defined by a decrease of at least 99.9% of cell viability as compared to the number of viable cells in the inoculum (about 2 to 5×10^4 cfu).

E. coli D22 cells = details: FIG. 1
Procedure: FIG. 1 concerns the analysis of peptide penetration into E. coli cells. (a) Fluorescence microscopy of E. coli cells exposed to the three different FITC labeled peptides.
In order to analyse the penetration capacity of the peptides in E. coli D22 cells, FITC-labeled peptides were added to 1 ml of bacterial cultures (OD600=0.8) at a final concentration of 8 μg/ml. The cells were allowed to acquire the peptides for 1 h at 37° C., washed 3 times with 0.5 ml PBS, fixed with 1% formaldehyde solution in PBS for 45 min at room temperature, washed 3 times with 0.5 ml PBS and finally resuspended in 50 μl PBS. Cells were visualized using a Leica DM5500 microscope equipped with a 100× objective and images were processed using Fiji software. One-way ANOVA statistical analysis was performed with the R package.

Human PCNA = Human PCNA (Homo sapiens, UniProt P12004); experiment: ITC, peptide interaction with human PCNA; assay type: binding; details: ITC 30° C., Human PCNA
Procedure: The inventors have compared the affinities of the prototypical P7 SC-binding peptide for the bacterial SC and for the eukaryotic functional homolog “Proliferating Cell Nuclear Antigen” PCNA. The same analysis was performed with the DPD1 peptide that contains a well-described specific PCNA Interacting Peptide (PIP) sequence ([…]).

T1 sequence (P0A988 whole entry): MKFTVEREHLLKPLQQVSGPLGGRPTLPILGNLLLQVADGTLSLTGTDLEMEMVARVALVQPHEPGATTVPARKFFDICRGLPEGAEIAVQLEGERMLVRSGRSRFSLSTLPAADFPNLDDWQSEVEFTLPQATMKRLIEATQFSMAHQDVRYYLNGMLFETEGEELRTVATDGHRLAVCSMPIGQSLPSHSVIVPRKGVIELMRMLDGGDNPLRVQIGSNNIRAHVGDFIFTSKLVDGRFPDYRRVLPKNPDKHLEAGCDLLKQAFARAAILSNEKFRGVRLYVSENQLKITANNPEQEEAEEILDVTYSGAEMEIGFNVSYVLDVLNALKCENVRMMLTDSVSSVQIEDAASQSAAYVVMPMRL
Chain of Human PCNA (P12004 whole entry): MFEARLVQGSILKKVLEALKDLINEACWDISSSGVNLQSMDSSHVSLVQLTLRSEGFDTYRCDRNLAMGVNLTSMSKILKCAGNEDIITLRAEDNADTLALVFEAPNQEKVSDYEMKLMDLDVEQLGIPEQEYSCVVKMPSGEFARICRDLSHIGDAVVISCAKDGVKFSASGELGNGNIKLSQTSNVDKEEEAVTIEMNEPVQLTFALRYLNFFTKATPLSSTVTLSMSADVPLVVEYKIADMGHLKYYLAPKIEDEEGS

| Molecule | interaction with ^EcSC, in words ([1]; ITC 30° C.) | ΔH (kcal/mole) [1] | Kd (nM) ([1]; ITC 30° C.) | ΔG (kcal/mole) ([1]; ITC 30° C.) | −TΔS (kcal/mole) ([1]; ITC 30° C.) | Kd [2] [µM] | ΔG [2] [kcal/mol] | ΔH [2] [kcal/mol] | −TΔS [2] [kcal/mol] | MIC (μM) (E. coli D22 strain; D22 strain) [µM] | MIC (μg/ml) (E. coli D22 strain; D22 strain) [µg/mL] | fold increase in MIC as compared to Py (E. coli D22 strain; E. coli D22) [fold] | penetration into E. coli cells, times more efficiently than P72 or P150 (E. coli D22 cells; average FITC signal of more than 100 bacteria) | entry into E. coli cells, times less efficiently than P122 (E. coli D22 cells; FITC staining after exposure to equal amounts) | interaction with E.coli SC, in words ([1]; ITC 30° C., specificity comparison with PCNA) | Kd (Human PCNA) [µM] | ΔH (Human PCNA) [kcal/mol] |
| --- | --- | --- | --- | --- | --- | --- | --- | --- | --- | --- | --- | --- | --- | --- | --- | --- | --- |
| CC[C@H](C)[C@H](NC(=O)[C@@H]1CCCN1C(=O)[C@H](CCCNC(=N)N)NC(=O)[C@@H]1CCCN1C(=O)[C@@H]1CCCN1C(=O)[C@@H](NC(=O)[C@@H]1CCCN1C(=O)[C@H](CCCNC(=N)N)NC(=O)[C@@H]1CCCN1C(=O)[C@H](CC(C)C)NC(=O)[C@H](Cc1ccc(O)cc1)NC(=O)[C@H](CO)NC(=O)CNC(=O)[C@H](CCCCN)NC(=O)[C@H](CC(=O)O)NC(=O)[C@@H](NC(=O)[C@H](CCCCN)NC(=O)c1ccc2c(c1)C(=O)OC21c2ccc(O)cc2Oc2cc(O)ccc21)C(C)C)[C@@H](C)O)C(=O)N[C@@H](Cc1ccc(O)cc1)C(=O)N[C@@H](CC(N)=O)C(=O)N[C@@H](CCCNC(=N)N)C(=O)N[C@@H](CC(N)=O)C(N)=O [Peptide P122] | do not interact | Ni | Ni | Ni | Ni | > 10 | -6.91 | -20.1 | 13.3 | 181 to 362 | 512 to 1024 | 64 to 512 | about 3 times |  |  |  |  |
| CC[C@H](C)[C@H](NC(=O)[C@@H]1CCCN1C(=O)[C@H](CCCNC(=N)N)NC(=O)[C@@H]1CCCN1C(=O)[C@@H]1CCCN1C(=O)[C@@H](NC(=O)[C@@H]1CCCN1C(=O)[C@H](CCCNC(=N)N)NC(=O)[C@@H]1CCCN1C(=O)[C@H](CC(C)C)NC(=O)[C@H](Cc1ccc(O)cc1)NC(=O)[C@H](CO)NC(=O)CNC(=O)[C@H](CCCCN)NC(=O)[C@H](CC(=O)O)NC(=O)[C@@H](NC(=O)[C@H](CCCCN)NC(=O)c1ccc2c(c1)C(=O)OC21c2ccc(O)cc2Oc2cc(O)ccc21)C(C)C)[C@@H](C)O)C(=O)N[C@@H](Cc1ccc(O)cc1)C(=O)N[C@@H](CC(N)=O)C(=O)N[C@@H](CCCNC(=N)N)C(=O)N[C@@H](CC(N)=O)C(=O)NCC(=O)N1CCC[C@H]1C(=O)N[C@@H](CCCNC(=N)N)C(=O)N[C@@H](CC1CCCCC1)C(=O)N[C@@H](Cc1ccccc1)C(=O)N[C@@H](CCC(N)=O)C(=O)N[C@@H](CC(C)C)C(=O)N[C@@H](CC(=O)O)C(=O)O [Peptide P72] | do not interact | Ni | Ni | Ni | Ni | > 10 | -5.98 | -8.92 | 2.94 | >269.9 |  |  |  | about 3 times |  |  |  |
| peptide that contains a well-described specific PCNA Interacting Peptide (PIP) sequence (QKKITDYF) [DPD1] |  |  |  |  |  |  |  |  |  |  |  |  |  |  | no interaction | 0.158 | -9.94 |
